Results on five substances are retold here after PMC2905701, “Synthesis and Biological Evaluation of New CRH Analogues” (Bioinorganic Chemistry and Applications, 2010).

pIC50: −log10 of the molar value. Non-standard residues stand in square brackets, D forms with d. No end group written: not given here. *: point of attachment. Aib = CC(C)(N)C(=O)O; Propyl = CCC*

As a reminder, the pIC50 is −log10 of the IC50, conventionally taken in molar units. Low values mean a large IC50, high ones a small IC50.

In one experiment the target is T1, CRH-1 receptor (Homo sapiens, UniProt P34998).
T1 sequence (P34998 24-415): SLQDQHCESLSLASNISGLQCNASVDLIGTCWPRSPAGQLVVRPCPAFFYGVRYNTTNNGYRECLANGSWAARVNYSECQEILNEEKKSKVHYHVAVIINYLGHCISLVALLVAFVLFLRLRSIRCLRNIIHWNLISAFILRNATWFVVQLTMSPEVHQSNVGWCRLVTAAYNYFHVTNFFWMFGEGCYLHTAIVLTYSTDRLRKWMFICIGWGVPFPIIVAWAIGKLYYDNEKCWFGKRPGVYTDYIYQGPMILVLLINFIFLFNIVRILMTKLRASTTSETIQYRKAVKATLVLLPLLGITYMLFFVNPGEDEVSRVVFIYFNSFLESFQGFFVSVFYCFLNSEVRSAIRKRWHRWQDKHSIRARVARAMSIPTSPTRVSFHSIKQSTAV
The experiment in a line: Binding affinity of h/r-CRH analogues to the CRH-1 receptor. Particulars: averages from 3 experiments performed in duplicates.

A further experiment concerns the target T2, CRH-R1 (Homo sapiens, UniProt P34998).
T2 construct: expressed in transfected cells; host or cells: LLC-PK1 cells (electroporation)
T2 sequence (P34998 24-415): T1 sequence (P34998 24-415)
The experiment in a line: Stimulation of cyclic AMP generation (CRE-luciferase activity) in LLC-PK1 cells cotransfected with CRH-R1 and CRE. The experiment is classed as cell-based. Particulars: LLC-PK1 cells cotransfected with CRH-R1 and CRE cDNA; peptides 10^-6 to 10^-11 M, 7 hours at 37°C; luciferase read-out; maximum response compared to h/r-CRH; read-out: Biological activity: % Response max/CRH. The method, then: The capacity of CRH and related peptide analogues to stimulate cyclic AMP generation was monitored in LLC-PK1 cells cotransfected with cDNA of CRH-R1 and CRE. For transfection the method of electroporation was applied and 40 millions of LLC-PK1 cells were prepared and washed in cytomix 1X transfection medium. The electroporation medium consisted of 1000 μL of cytomix 2X, 864 μL of sterilized water, 80 μL of ATP 50 mM, 3.2 mg of glutathion, 20 μg of CRH-R1 cDNA and 20 μg of CRE cDNA. 500 μL of the above solution were transferred in the electroporation device and after remaining for 10 minutes a standard growth medium was added (DMEM without phenol red with glutamine, antibiotics, and 10% FCS) to a total volume of 50 mL. The suspension was distributed in […] of 24 wells each, by adding 1 mL per well, and was allowed to pre-incubate for 24 hours. The growth medium was aspirated and replaced with fresh one followed by another preincubation for 24 hours. The cells were then challenged with graded concentrations (10^−6 to 10^−11 M) of the test peptides and incubated for 7 hours at 37°C. After that, the medium with the added peptides was removed, the cells were washed twice with PBS 1X, 100 μL of lysis buffer 1X per well were added, the plates were left at room temperature for 30 minutes and then stored at −80°C overnight. The luciferace activity was measured with the use of a luminometer after the addition of 50 μL of lysed cell preparation and 50 μL of bioluminescence medium per well in a 96 well plate luminometer.

The conditions of experiment [1]: times more potent than α-helical CRH; cited from earlier work. From the text: Introduction of D-amino acids leading to stabilization of β-turns, can provide analogues with increased potency but not all residues are susceptible to such an alteration, leading even to the opposite effect. However, the D-Phe^12 substitution has proven to be a favorable one especially combined with other advantageous modifications such as the replacement of Met at positions 21 and 38 with Nle.

With “SEEPPISLDLT[dF]HLLREVLEMARAEQLAQQAHSNRKLC(Propyl)EII-NH2 [Analogue 4, [D-Phe^12, Cys(Pr)^38]CRH]”, the pIC50 on CRH-1 receptor is 7.46. Besides, the Emax at CRH-R1 was found to be 60%.
As to “SEEPPISLDLT[dF]HL[Aib]REVLEMARAEQLAQQAHSNRKLMEII-NH2 [Analogue 2, [D-Phe^12, Aib^15]CRH]”, the pIC50 on CRH-1 receptor is 8.08. Besides, the Emax on CRH-R1 was 60%.
In turn, “SEEPPISLDLT[dF]H[Aib]LREVLEMARAEQLAQQAHSNRKLMEII-NH2 [Analogue 1, [D-Phe^12, Aib^14]CRH]” showed a pIC50 at CRH-1 receptor of 6.65. Moreover, at CRH-R1, the Emax was found to be 60%.
As to [D-Phe^12, Nle^21, 38]CRH21-41, the “Potency relative to α-helical CRH” value in experiment [1] is recorded as 15 times.
For the substance [D-Phe^12]CRH, the “Potency relative to α-helical CRH” value in experiment [1] is listed as “twice”.
